[ ]: non-standard residue; d: D form. Orn = NCCC[C@H](N)C(=O)O
Experiments:
rosacea [1] = experiment: Topical treatment of a human subject with moderately severe rosacea and pustular lesions (Example 1); assay type: in vivo
Description: The effectiveness of a cyclic decapeptide antibiotic for treating rosacea was determined on a human subject afflicted, for two years duration, with moderately severe rosacea and pustular lesions. […] The subject received topical metronidazole in a carbomer gel composition (Metrogel™) applied in the morning. Topical loloatin B (which was obtained by fermentation of the Bacillus deposited as ATCC 55797 generally following the methods described in WO98/04584) was applied in the evening. The loloatin was first dissolved in a minimal amount of alcohol which was then mixed with Lubriderm™ lotion to provide 1% w/v formulation.

rosacea [2] = conditions: metronidazole administered topically twice daily; cited from earlier work
rosacea [3] = experiment: Topical treatment of a subject afflicted with rosacea, two-year trial period (Example 2); assay type: in vivo, human
Source text: A subject afflicted with rosacea received topical Metrogel™ overlayed with Lubriderm™ lotion in the morning and 1% loloatin B formulated in Lubriderm™ (as described above) in the evening. […] With this combined treatment, the rosacea was controlled such that only a few lesions were present at any given time, and complete remissions of several days duration became common.

Molecule | benefit of previous treatments (rosacea [1]; previous treatments with metronidazole, same subject) | patients who do not benefit from treatment (rosacea [2]) | improvement in the rosacea on reinstituting the regimen (rosacea [1]; each time once daily Metrogel and once daily loloatin was reinstituted) | improvement in the rosacea (rosacea [1]; topical Metrogel in the morning plus 1% w/v loloatin B in Lubriderm lotion in the evening, after one month) | control of the condition (rosacea [3]; combined Metrogel morning / 1% loloatin B evening, throughout the trial period (two years)) | healing time of the lesions (rosacea [3]; combined treatment Metrogel morning / 1% loloatin B evening) [days] | course of the rosacea (rosacea [3]; topical Metrogel overlayed with Lubriderm in the morning plus 1% loloatin B in Lubriderm in the evening)
Cc1ncc([N+](=O)[O-])n1CCO [metronidazole, reference compound] | without benefit | about 50% |  |  |  |  | 
cyclo[L-Val-L-Orn-L-Leu-D-Tyr-L-Pro-L-Phe-D-Phe-L-Asn-L-Asp-L-Trp] (cyclo(V[Orn]L[dY]PF[dF]NDW); SMILES CC(C)C[C@@H]1NC(=O)[C@H](CCCN)NC(=O)[C@H](C(C)C)NC(=O)[C@H](Cc2c[nH]c3ccccc23)NC(=O)[C@H](CC(=O)O)NC(=O)[C@H](CC(N)=O)NC(=O)[C@@H](Cc2ccccc2)NC(=O)[C@H](Cc2ccccc2)NC(=O)[C@@H]2CCCN2C(=O)[C@@H](Cc2ccc(O)cc2)NC1=O) [loloatin B] |  |  | significant improvement | Significant improvement | effectively controlled | 2 to 3 | Progressive improvement
